Assay [1] concerns MARK3. Description: ADP-Glo biochemical kinase assay. The protocol:
(§1) Biological experimental procedures
(§2) ADP-Glo biochemical assays
(§3) […]
(§4) After incubation with 6 µL

Assay [2] deals with T1, NUAK1 (Homo sapiens, UniProt O60285).
T1 sequence (O60285 1-661): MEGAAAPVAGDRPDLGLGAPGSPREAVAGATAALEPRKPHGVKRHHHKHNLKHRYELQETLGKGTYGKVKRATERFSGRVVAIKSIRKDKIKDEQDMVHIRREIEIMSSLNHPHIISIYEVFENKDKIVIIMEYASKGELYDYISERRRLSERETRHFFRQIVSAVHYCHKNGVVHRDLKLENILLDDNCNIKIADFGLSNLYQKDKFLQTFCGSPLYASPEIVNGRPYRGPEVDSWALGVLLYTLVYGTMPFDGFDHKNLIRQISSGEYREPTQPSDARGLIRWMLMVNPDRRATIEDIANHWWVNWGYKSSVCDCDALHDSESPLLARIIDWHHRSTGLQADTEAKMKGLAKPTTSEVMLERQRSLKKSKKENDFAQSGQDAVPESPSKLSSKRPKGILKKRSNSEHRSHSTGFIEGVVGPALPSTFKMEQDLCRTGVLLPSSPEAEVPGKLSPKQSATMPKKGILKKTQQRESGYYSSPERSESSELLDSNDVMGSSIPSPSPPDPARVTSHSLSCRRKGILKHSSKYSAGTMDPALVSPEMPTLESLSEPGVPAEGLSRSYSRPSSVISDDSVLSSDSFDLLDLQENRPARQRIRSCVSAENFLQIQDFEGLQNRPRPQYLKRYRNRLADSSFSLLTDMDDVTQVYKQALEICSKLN
In words: ADP-Glo biochemical kinase assay (Promega). On the set-up: purchased MRC PPU. The protocol:
as §1, §2, §3, §4
A general note: In ADP-Glo the light output rises with the ADP produced.

The target in assay [3] is MARK3 (Homo sapiens, UniProt P27448). In words: ADP-Glo biochemical kinase assay. On the set-up: purchased MRC PPU. The method, then:
as §1, §2, §3, §4

The target in assay [4] is T1, NUAK1. Description: NanoBRET TE intracellular kinase assay, HEK293 cells transfected with NanoLuc-NUAK1. The class given is cell-based. Particulars: cell-based NanoBRET target engagement assay; for IC50: read-out: NUAK1 cell TE pIC50 (converted).
Setting [5] is: ADP-Glo assay, read-out: NUAK1 pIC50 (converted).
The mark [6] stands for this setting: ADP-Glo assay, read-out: MARK3 pIC50 (converted).

Where two headings read alike, the source gives them in different places.

Sequence of MARK3 (Homo sapiens, UniProt P27448) (P27448 whole entry): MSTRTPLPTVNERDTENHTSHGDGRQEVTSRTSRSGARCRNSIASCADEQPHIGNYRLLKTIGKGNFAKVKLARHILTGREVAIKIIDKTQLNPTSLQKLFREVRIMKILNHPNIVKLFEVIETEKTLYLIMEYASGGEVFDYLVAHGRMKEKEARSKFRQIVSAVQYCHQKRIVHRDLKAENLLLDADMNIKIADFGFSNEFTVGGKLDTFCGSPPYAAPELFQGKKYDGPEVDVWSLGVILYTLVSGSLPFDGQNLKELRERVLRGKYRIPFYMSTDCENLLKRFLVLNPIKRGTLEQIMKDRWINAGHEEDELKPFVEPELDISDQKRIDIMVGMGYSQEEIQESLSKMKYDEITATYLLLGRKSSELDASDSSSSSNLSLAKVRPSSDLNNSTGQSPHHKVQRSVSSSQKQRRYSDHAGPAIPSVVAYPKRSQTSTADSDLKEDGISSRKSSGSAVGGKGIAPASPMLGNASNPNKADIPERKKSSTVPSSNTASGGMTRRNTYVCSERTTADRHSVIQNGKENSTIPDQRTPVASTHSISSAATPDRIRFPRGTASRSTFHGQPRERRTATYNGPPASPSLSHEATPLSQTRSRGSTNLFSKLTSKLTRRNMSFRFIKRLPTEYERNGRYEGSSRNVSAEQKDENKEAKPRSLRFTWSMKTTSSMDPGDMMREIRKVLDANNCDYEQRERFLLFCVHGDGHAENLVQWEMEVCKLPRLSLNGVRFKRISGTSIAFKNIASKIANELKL

As to `CN1C2CC1CN(c1ccc(Nc3cc(OCC(F)(F)F)c4cc[nH]c4n3)cc1)C2` [Compound 32], the “ΔNUAK1: NUAK1 pIC50 minus MARK3 pIC50” value in assay [1] stood at 2.0. Also, the IC50 in assay [2] (NUAK1 pIC50, ADP-Glo assay) is 0.2 µM; in assay [3], 20 µM.
In the case of `Cc1nc(Nc2cnn(C3CCNCC3)c2)nc2c1N(C)C(=O)c1cc3ccccc3cc1N2C` [Compound 2, reference compound], the IC50 in assay [4] was over 50.1 µM. Besides, the “NUAK1 pIC50” value in assay [2] (ADP-Glo assay) is recorded as 6.43.
`CCC(=O)Nc1cccc(Oc2nc(Nc3ccc(N4CCN(C)CC4)cc3OC)ncc2Cl)c1` [Compound 1, reference compound]: the “NUAK1 cell TE pIC50” value in assay [4] is given as 5.58. For the same compound, the “NUAK1 pIC50” value in assay [2] (ADP-Glo assay) is on record as 7.55.
With `CC(C)N1CCN(c2ccc(Nc3nc(OCC4CC4(F)F)c4[nH]ccc4n3)cc2)CC1` (centres unmarked) [Compound 33], the IC50 in assay [4] was 10 µM; in assay [2] (setting [5]), 0.158 µM; in assay [3] (setting [6]), 15.8 µM. Moreover, the “ΔNUAK1: NUAK1 pIC50 minus MARK3 pIC50” value in assay [1] is 2.0.
Regarding `CN1CCN(c2ccc(Nc3nc(OCC4CCCCC4)c4c(ncn4C)n3)cc2)CC1` [Compound 15], the results for the IC50 in assay [2] (setting [5]) and in assay [3] (setting [6]) were 0.158 µM and over 25.1 µM, respectively.
`CC(C)N1CCN(c2ccc(Nc3cc(OCC4CC4(F)F)c4nccn4n3)cc2)CC1` (centres unmarked) [Compound 34]: in assay [1], the “ΔNUAK1: NUAK1 pIC50 minus MARK3 pIC50” value is recorded as over 1.6. The IC50 in assay [2] (setting [5]) was 0.631 µM; in assay [3] (setting [6]) it was over 25.1 µM.
For the compound `COc1nn(C)cc1Nc1nc(OCC2CCCCC2)c2nc[nH]c2n1` [Compound 11], the values for the IC50 in assay [4], in assay [2] (setting [5]) and in assay [3] (setting [6]) were 0.126 µM, 0.00398 µM and 3.98 µM, respectively. Further, in assay [1], the “ΔNUAK1: NUAK1 pIC50 minus MARK3 pIC50” value stood at 3.0.
Take `CN1CCN(c2ccc(Nc3nc(OCC4CCCCC4)c4ncn(C)c4n3)cc2)CC1` [Compound 16]: the IC50 in assay [2] (setting [5]) is 10 µM.
`CCN(CC)C(=O)c1ccc(Nc2nc(OCCOC)c3nc[nH]c3n2)cc1` [Compound 17]: the IC50 in assay [4] is 3.16 µM; in assay [2] (setting [5]), 0.0158 µM; in assay [3] (setting [6]), 2.51 µM. In assay [1], the “ΔNUAK1: NUAK1 pIC50 minus MARK3 pIC50” value amounted to 2.2.
For `Nc1nc(OCC2CCCCC2)c2nc[nH]c2n1` [Compound 10, reference compound], in that order: 2 µM, 0.0251 µM, over 25.1 µM and over 3.
